The values that follow are results of earlier work, collected in US20240325292A1, “COMPOSITION AND METHODS OF TREATMENT USING TRANSDERMAL SUPPLEMENTATION” (Xygenyx Inc., priority 2023, published 2024).

The conditions of data set [1]: as penetration enhancer.
Data set [2] relates to wide dynamic range neurons in the ventroposterolateral nucleus of the thalamus. The settings on record: in vivo.
Assay in data set [3]: not given
This is another data set of the same source.

The conditions of data set [4]: as compared to α-tocopherol = 1.0.
The test system of the next data set is rheumatoid arthritis. The settings on record: arthritic subjects.
For data set [5] the following is noted: dietary intake in equal portions.
In data set [6] the test system is markers of inflammation in the blood. The following applies: individuals with metabolic syndrome.
The conditions of data set [7]: in vivo.
The mark [8] stands for this setting: 400-500 IU, in combination with 10-20 mg β-carotene and 400-500 mg vitamin C.

As to `CC(C)[C@@H]1CC[C@@H](C)C[C@H]1O` [Menthol], the “increase of transdermal drug uptake, factor” value in data set [1] is reported as no less than 10.

For the compound `CCCCCc1cc(O)c2c(c1)OC(C)(C)C1CCC(C)=CC21` (stereo not drawn) [THC, Δ-9-tetrahydrocannabinol], the “potency in mediating pain relative to morphine” value in data set [2] was “ten times more powerful than morphine”.

Take `CC12CCC(CC1)C(C)(C)O2` [eucalyptol, 1,8-epoxy-p-menthane]: the “increase of transdermal drug uptake, factor” value in data set [1] is on record as “more than 10”.

With `C/C(=C\CO)CCC[C@H](C)CCC[C@H](C)CCCC(C)C` [phytol, Phytol], the solubility in water result is recorded as “nearly insoluble in water”.

Regarding `Cc1c(C)c2c(c(C)c1O)CC[C@@](C)(CCC[C@H](C)CCC[C@H](C)CCCC(C)C)O2` [α-tocopherol], in data set [3] (setting [8]), the “progression of age-related macular degeneration” value is “dramatically reduce the progression” and the “reduction in the development of age-related cataracts” value was 23%. In data set [3] (800-900 IU/day), the “functional health of sperm” value is listed as “improve functional health of sperm”. Moreover, in data set [3] (1600-3200 IU/day), the “blood plasma concentration of F2-isoprostane” value is given as “significantly lower”. Also, the “reduction of risk of coronary disease” value in data set [3] (doses up to 400 IU/day) is reported as “up to 34%”. In data set [3] (doses up to 400 IU/day, controlled trials), the “reduction of risk of developing neurodegenerative diseases (Alzheimer's Syndrome or dementia)” value is no more than 24%. The relative biological activity in data set [4] is given as 1.0.

Consider `C=C1CC/C=C(\C)CC[C@@H]2[C@@H]1CC2(C)C` [β-caryophyllene], for which the “joint and lymph node swelling, leukocyte number” value in the data set with rheumatoid arthritis is “reduced swelling of joints and lymph nodes as well as the number of circulating and articular leukocytes”.

With `Cc1cc(O)c(C)c2c1O[C@](C)(CCC[C@H](C)CCC[C@H](C)CCCC(C)C)CC2` [β-tocopherol], the relative biological activity in data set [4] is recorded as 0.5.

On to `Cc1c(O)cc2c(c1C)O[C@](C)(CCC[C@H](C)CCC[C@H](C)CCCC(C)C)CC2` [γ-tocopherol], for which the “concentration in vivo relative to α-tocopherol” value in data set [5] is “roughly 10%”. In data set [4], the relative biological activity is on record as 0.1.

On to `Cc1cc(O)cc2c1O[C@](C)(CCC[C@H](C)CCC[C@H](C)CCCC(C)C)CC2` [δ-tocopherol], for which the “markers of inflammation in the blood” value in data set [6] is on record as “reduced markers of inflammation”. In data set [4], the relative biological activity is 0.03.

“HGH: hormone comprising a peptide chain that is synthesized in the pituitary gland”: in data set [7], the biological half-life is on record as 10-20 minutes.
